# Experimental data as given in ChEMBL document CHEMBL4811216, “Chemotherapy for human schistosomiasis: how far have we come? What's new? Where do we go from here?” (RSC Med Chem, 2020).
# Columns and labels:
# [1] = test system: Schistosoma mansoni; assay: Antischistosomal activity against Schistosoma mansoni incubated for 72 hrs by microscopic method; assay type: functional, organism-based
# [2] = biological target: HDAC1 (histone deacetylase 1) (Homo sapiens, UniProt Q13547); assay: Inhibition of human HDAC1 using Z-Lys(Ac)-AMC as substrate at 1 uM by fluorimetric method relative to control; details: HDAC1 enzyme, probe Z-Lys(Ac)-AMC
# [3] = Cytotoxicity against Biomphalaria alexandrina incubated for 24 hrs relative to control; parameters: concentration or dose not given beside the values
# [4] = test system: Schistosoma mansoni; assay: Antischistosomal activity against Schistosoma mansoni Puerto-Rican assessed as worm mortality incubated for 5 days by stereomicroscopic method; assay type: functional, organism-based; details: 120 h; for IC90: time 5 day
# [5] = test system: Schistosoma mansoni; assay: Antischistosomal activity against Schistosoma mansoni Egyptian assessed as worm mortality incubated for 5 days by stereomicroscopic method; assay type: functional, organism-based; details: 120 h; for IC90: time 5 day
# [6] = test system: Schistosoma mansoni; assay: Antischistosomal activity against Schistosoma mansoni assessed as worm mortality at 5 ug/ml incubated for 5 days by stereomicroscopic method relative to control; assay type: functional; details: 120 h, time 5 day
# [7] = Cytotoxicity against Biomphalaria alexandrina incubated for 24 hrs
# [8] = test system: Schistosoma mansoni; assay: Antischistosomal activity against adult Schistosoma mansoni measured up to 72 hrs by microscopic method; assay type: functional, organism-based
# [9] = test system: Schistosoma mansoni; assay: Antischistosomal activity against Schistosoma mansoni NTS assessed as worm mortality at 10 uM measured up to 72 hrs by microscopic method relative to control; assay type: functional; details: time hrs <=72
# [10] = test system: Schistosoma mansoni; assay: Antischistosomal activity against adult Schistosoma mansoni assessed as worm mortality at 10 uM measured up to 72 hrs by microscopic method relative to control; assay type: functional; details: time hrs <=72
# [11] = test system: Schistosoma mansoni; assay: microbe, parasite or virus in culture; details: 72 h
# Description: Antischistosomal activity against Schistosoma mansoni incubated for 72 hrs by inverted microscopic method
# [12] = test system: Schistosoma mansoni; assay: microbe, parasite or virus in culture; details: Liberian, 72 h
# Description: Antischistosomal activity against Schistosoma mansoni Liberian NTS incubated for 72 hrs by microscopic method
# [13] = test system: Schistosoma haematobium; assay: Antischistosomal activity against Schistosoma haematobium at 10 uM measured after 72 hrs relative to control; assay type: functional
# Sequence of HDAC1 (histone deacetylase 1) (Q13547 whole entry): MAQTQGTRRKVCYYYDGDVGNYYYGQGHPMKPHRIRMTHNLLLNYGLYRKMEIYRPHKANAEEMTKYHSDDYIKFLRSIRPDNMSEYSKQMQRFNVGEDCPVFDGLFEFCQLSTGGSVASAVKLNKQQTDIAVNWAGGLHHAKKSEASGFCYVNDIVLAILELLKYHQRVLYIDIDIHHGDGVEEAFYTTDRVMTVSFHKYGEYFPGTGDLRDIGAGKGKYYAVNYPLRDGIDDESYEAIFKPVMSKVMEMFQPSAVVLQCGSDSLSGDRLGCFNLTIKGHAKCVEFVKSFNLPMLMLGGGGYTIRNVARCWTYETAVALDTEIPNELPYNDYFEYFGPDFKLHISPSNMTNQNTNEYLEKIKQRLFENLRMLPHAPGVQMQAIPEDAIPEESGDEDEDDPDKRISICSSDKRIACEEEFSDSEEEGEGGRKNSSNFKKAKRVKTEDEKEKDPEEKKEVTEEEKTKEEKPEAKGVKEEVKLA
compound,measurement,setting,value
N#Cc1c(C(F)(F)F)cc(NCc2ccc(F)cc2)n2c1nc1cc(Cl)cc(Cl)c12,IC50,[1],200 nM
O=C(NO)c1cccc(C(=O)NOCc2cccc(Cl)c2Cl)c1,inhibition at 1 µM,[2],< 10%
N#Cc1c(C(F)(F)F)cc(NCc2cccs2)n2c1nc1cc(Cl)c(Cl)cc12,IC50,[1],200 nM
CN1CCN(c2c3cc(Cl)ccc3nc3[nH]c4ccccc4c23)CC1,mortality,[3],100%
same,IC50,[4],6270 nM
same,IC90,[4],18000 nM
same,IC50,[5],5410 nM
same,IC90,[5],13700 nM
same,mortality at 5 µg/mL,[6],100%
same,LC50,[7],630 nM
same,LC90,[7],910 nM
CCNCCNc1cc(-c2ccc(C(F)(F)F)cc2)c(C#N)c2nc3ccccc3n12,IC50,[8],200 nM
same,mortality at 10 µM,[9],> 70%
O=C(NO)c1cccc(C(=O)NOCCCc2ccccc2)c1,inhibition at 1 µM,[2],< 10%
CCNCCNc1cc(-c2ccc(C(F)(F)F)cc2)c(C#N)c2nc3cc(Cl)c(Cl)cc3n12,IC50,[8],200 nM
same,mortality at 10 µM,[9],> 70%
CCN1CCCC1CNc1c2c3ccccc3nc-2n(C)c2ccc(Cl)cc12 (stereo not given),mortality,[3],100%
same,LC50,[7],2950 nM
same,LC90,[7],4100 nM
CCNCCNc1cc(-c2ccc(C(F)(F)F)cc2)c(C#N)c2nc3ncccc3n12,IC50,[8],200 nM
same,mortality at 10 µM,[9],> 70%
N#Cc1c(C(F)(F)F)cc(Nc2ccccc2)n2c1nc1ccccc12,mortality at 10 µM,[10],> 60%
same,IC50,[8],200 nM
same,mortality at 10 µM,[9],> 70%
Cn1c(=O)c2c(S(C)(=O)=O)snc2n(C)c1=O,IC50,[11],4700 nM
same,IC50,[12],800 nM
same,Activity,[13],75.4%
O=C(NO)c1cccc(C(=O)NOCc2cccc3ccccc23)c1,inhibition at 1 µM,[2],< 10%
Cn1c2nc3ccccc3c-2c(N2CCC(N3CCCCC3)CC2)c2cc(Cl)ccc21,mortality,[3],100%
same,IC50,[4],7850 nM
same,IC90,[4],13400 nM
same,IC50,[5],3460 nM
same,IC90,[5],8310 nM
same,mortality at 5 µg/mL,[6],100%
same,LC50,[7],2600 nM
same,LC90,[7],3500 nM
N#Cc1c(C(F)(F)F)cc(Nc2ccc(OC(F)(F)F)cc2)n2c1nc1ccccc12,IC50,[1],200 nM
CCNCCNc1cc(-c2ccc(C(F)(F)F)cc2)c(C#N)c2nc3cccc(Cl)c3n12,IC50,[8],200 nM
same,mortality at 10 µM,[9],> 70%
N#Cc1c(-c2ccc(C(F)(F)F)cc2)cc(NCCn2ccnc2)n2c1nc1ccccc12,IC50,[8],200 nM
same,mortality at 10 µM,[9],> 70%
Cc1csc(Nc2cc(C(F)(F)F)c(C#N)c3nc4ccccc4n23)n1,mortality at 10 µM,[10],> 60%
same,IC50,[8],200 nM
same,mortality at 10 µM,[9],> 70%
N#Cc1ccc(Nc2cc(C(F)(F)F)c(C#N)c3nc4ccccc4n23)cc1,mortality at 10 µM,[10],> 60%
same,IC50,[8],200 nM
same,mortality at 10 µM,[9],> 70%
N#Cc1c(C(F)(F)F)cc(NCc2ccco2)n2c1nc1cc(Cl)c(Cl)cc12,IC50,[1],200 nM
CN(C)CCNc1nc2ccc(Nc3cc(C(F)(F)F)c(C#N)c4nc5ccccc5n34)cc2o1,mortality at 10 µM,[10],> 60%
same,IC50,[8],200 nM
same,mortality at 10 µM,[9],> 70%
CCNCCNc1cc(-c2cccc(C(F)(F)F)c2)c(C#N)c2nc3ccccc3n12,IC50,[8],200 nM
same,mortality at 10 µM,[9],> 70%
N#Cc1c(C(F)(F)F)cc(NCc2ccc(OC(F)(F)F)cc2)n2c1nc1cc(Cl)c(Cl)cc12,IC50,[1],200 nM
CC(C)=CCC/C(C)=C\CNCCNC1C2CC3CC(C2)CC1C3 (stereo not given),IC50,[11],4900 nM
same,IC50,[12],2900 nM
same,Activity,[13],82.5%
CCNCCNc1cc(-c2ccc(C(F)(F)F)cc2)c(C#N)c2nc3cc(Cl)ccc3n12,IC50,[8],200 nM
same,mortality at 10 µM,[9],> 70%
CC(Nc1cc(C(F)(F)F)cc2nc3cc(Cl)c(Cl)cc3n12)c1ccc(S(C)(=O)=O)cc1 (stereo not given),IC50,[1],200 nM
O=C(NO)c1cccc(C(=O)NNc2ccccc2)c1,inhibition at 1 µM,[2],< 10%
CN1CCC(Oc2cc(-c3ccc(C(F)(F)F)cc3)c(C#N)c3nc4ccccc4n23)CC1,IC50,[8],200 nM
same,mortality at 10 µM,[9],> 70%
N#Cc1c(C(F)(F)F)cc(Nc2ccc3nc(NCCN4CCCC4)oc3c2)n2c1nc1ccccc12,mortality at 10 µM,[10],> 60%
same,IC50,[8],200 nM
same,mortality at 10 µM,[9],> 70%
Clc1ccc2c(N3CCNCCN(c4ccnc5cc(Cl)ccc45)CCNCC3)ccnc2c1,IC50,[1],1600 nM
COc1ccc(Nc2cc(C(F)(F)F)c(C#N)c3nc4ccccc4n23)cc1,mortality at 10 µM,[10],> 60%
same,IC50,[8],200 nM
same,mortality at 10 µM,[9],> 70%
CNc1nnc(Sc2cnn(-c3ccccc3)c(=O)c2Cl)s1,IC50,[11],2500 nM
same,IC50,[12],400 nM
same,Activity,[13],100%
CCNCCNc1cc(-c2ccc(Cl)c(Cl)c2)c(C#N)c2nc3ccccc3n12,IC50,[8],200 nM
same,mortality at 10 µM,[9],> 70%
CCN(CC)CCCC(C)Nc1cc(-c2ccc(C(F)(F)F)cc2)c(C#N)c2nc3ccccc3n12 (stereo not given),IC50,[8],200 nM
same,mortality at 10 µM,[9],> 70%
O=C(Nc1ccc(C(F)(F)F)c(C(F)(F)F)c1)c1cc(Cl)ccc1O,IC50,[11],2100 nM
same,IC50,[12],200 nM
same,Activity,[13],100%
